Data from PubChem BioAssay AID330 (DTP/NCI, 2004).
Values joined by “and” are separate entries in the source; they are usually repeats but may differ in a detail not shown here. Equal entries are not always repeated. Toxic doses and inconclusive results are not listed. Rule for the calls: active = survival T/C of 150% or more; inactive = T/C below 125% in these data.

System: P388 leukemia ip, CD2F1 mice, survival T/C
Assay: NCI In Vivo Anticancer Drug Screen. Data for tumor model P388 Leukemia (intraperitoneal) in CD2F1 (CDF1) mice
Settings: endpoint: median survival time, higher = longer survival
Procedure, shortened: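 Mice carrying the transplanted tumor received test compound or vehicle. Survival was recorded in each group, and the value is the treated-group measurement divided by that of the vehicle-treated control group.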

[1] = dose: 50.0 mg/kg/injection, schedule: Q01DX009 (ip), vehicle: saline with Tween-80
[2] = dose: 12.5 mg/kg/injection, schedule: Q01DX005 (ip), vehicle: saline
[3] = dose: 25.0 mg/kg/injection, schedule: Q01DX005 (ip), vehicle: saline
[4] = dose: 50.0 mg/kg/injection, schedule: Q01DX005 (ip), vehicle: saline
[5] = dose: 50.0 mg/kg/injection, schedule: Q01DX005 (ip), vehicle: Klucel (hydroxypropylcellulose) (HPC)
[6] = dose: 100.0 mg/kg/injection, schedule: Q01DX005 (ip), vehicle: Klucel (hydroxypropylcellulose) (HPC)
[7] = dose: 200.0 mg/kg/injection, schedule: Q01DX005 (ip), vehicle: Klucel (hydroxypropylcellulose) (HPC)
[8] = dose: 100.0 mg/kg/injection, schedule: Q01DX009 (ip), vehicle: saline with Tween-80
[9] = dose: 200.0 mg/kg/injection, schedule: Q01DX009 (ip), vehicle: saline with Tween-80
[10] = dose: 60.0 mg/kg/injection, schedule: Q01DX005 (ip), vehicle: saline with Tween-80
[11] = dose: 120.0 mg/kg/injection, schedule: Q01DX005 (ip), vehicle: saline with Tween-80
[12] = dose: 400.0 mg/kg/injection, schedule: Q01DX009 (ip), vehicle: saline with Tween-80
[13] = dose: 50.0 mg/kg/injection, schedule: Q01DX009 (ip), vehicle: Klucel (hydroxypropylcellulose) (HPC)
[14] = dose: 100.0 mg/kg/injection, schedule: Q01DX009 (ip), vehicle: Klucel (hydroxypropylcellulose) (HPC)
[15] = dose: 200.0 mg/kg/injection, schedule: Q01DX009 (ip), vehicle: Klucel (hydroxypropylcellulose) (HPC)
[16] = dose: 50.0 mg/kg/injection, schedule: Q01DX005 (ip), vehicle: saline with Tween-80

Measured: T/C

C=C1C(=O)C23C(OC(=O)CCCCCCCCCCC)C1CCC2C12COC3(O)C(O)C1C(C)(C)CCC2O (configuration not stated)
inactive: dose: 3.75 mg/kg/injection, schedule: Q01DX009 (ip), vehicle: saline with Tween-80 98 % of control | dose: 7.5 mg/kg/injection, schedule: Q01DX009 (ip), vehicle: saline with Tween-80 103 % of control | dose: 15.0 mg/kg/injection, schedule: Q01DX009 (ip), vehicle: saline with Tween-80 95 % of control | dose: 30.0 mg/kg/injection, schedule: Q01DX009 (ip), vehicle: saline with Tween-80 100 % of control

Cc1[c-]onc1C.Cc1[c-]onc1C.[Ag].[Ag].[NH-]S(=O)(=O)c1ccc(N=Nc2cc(N=Nc3ccc(S([NH-])(=O)=O)cc3)c3c(NC(=O)C(Cl)Cl)cccc3c2OC(=O)C(Cl)Cl)cc1
inactive: dose: 3.13 mg/kg/injection, schedule: Q01DX009 (ip), vehicle: saline with Tween-80 91 % of control | dose: 6.25 mg/kg/injection, schedule: Q01DX009 (ip), vehicle: saline with Tween-80 89 % of control | dose: 25.0 mg/kg/injection, schedule: Q01DX009 (ip), vehicle: saline with Tween-80 89 % of control | [1] 99 % of control

COC(=O)[C@@H]1O[C@H]2OC=C[C@H]21
inactive: [2] 112 % of control | [3] 108 % of control | [4] 99 % of control and 100 % of control

O=C(O)CCSC1=CC(=O)c2ccccc2C1=O
inactive: dose: 6.25 mg/kg/injection, schedule: Q04DX003 (ip), vehicle: gum acacia 115 % of control | dose: 12.5 mg/kg/injection, schedule: Q04DX003 (ip), vehicle: gum acacia 110 % of control

N=C(N)c1ccc2oc(/C=C/c3ccc(-c4cc5cc(C(=N)N)ccc5o4)cc3)cc2c1
inactive: [5] 98 % of control | [6] 104 % of control | [7] 104 % of control

COCCCNC(=S)N/N=C/c1cccc(OC)c1O
inactive: [1] 101 % of control | [8] 111 % of control | [9] 88 % of control

CCc1nc(N)nc(N)c1-c1ccc(N2CCNCC2)c([N+](=O)[O-])c1
inactive: [10] 106 % of control | [11] 112 % of control

Clc1ccc2sc(-c3ccccc3)nc2c1
inactive: [1] 106 % of control | [8] 103 % of control | [9] 100 % of control | [12] 100 % of control

CSC(=Nc1ccc(C)c(Cl)c1)NC#N
inactive: [13] 98 % of control | [14] 91 % of control | [15] 92 % of control

CCNc1nc(NC(C)C)nc(N2CCc3ccccc3C2)n1
inactive: [16] 106 % of control | dose: 100.0 mg/kg/injection, schedule: Q01DX005 (ip), vehicle: saline with Tween-80 117 % of control | dose: 200.0 mg/kg/injection, schedule: Q01DX005 (ip), vehicle: saline with Tween-80 110 % of control

Cc1ccc(O)c(C(NCCO)c2ccccc2)c1 (configuration not stated)
inactive: dose: 100.0 mg/kg/injection, schedule: Q04DX002 (ip), vehicle: saline 102 % of control

O=C1c2ccccc2C=c2c1nc1c(O)ccc3cccc2c31
inactive: dose: 6.25 mg/kg/injection, schedule: Q01DX005 (ip), vehicle: Klucel (hydroxypropylcellulose) (HPC) 101 % of control | dose: 12.5 mg/kg/injection, schedule: Q01DX005 (ip), vehicle: Klucel (hydroxypropylcellulose) (HPC) 100 % of control | dose: 25.0 mg/kg/injection, schedule: Q01DX005 (ip), vehicle: Klucel (hydroxypropylcellulose) (HPC) 111 % of control | [5] 97 % of control

CC1=CC(c2ccccc2)=CS(=O)(N(C)C)=C1 (configuration not stated)
inactive: dose: 60.0 mg/kg/injection, schedule: Q01DX005 (ip), vehicle: saline 100 % of control | dose: 120.0 mg/kg/injection, schedule: Q01DX005 (ip), vehicle: saline 104 % of control | dose: 240.0 mg/kg/injection, schedule: Q01DX005 (ip), vehicle: saline 104 % of control

CCCCN(CCNc1cc(OC)cc2cccnc12)C(C)CC (configuration not stated)
inactive: [2] 112 % of control | [3] 119 % of control | [4] 98 % of control and 104 % of control

COC(=O)[C@H]1O[C@H]1c1ccncc1
inactive: [5] 100 % of control and 104 % of control | [6] 103 % of control and 92 % of control | [7] 103 % of control and 94 % of control | dose: 400.0 mg/kg/injection, schedule: Q01DX005 (ip), vehicle: Klucel (hydroxypropylcellulose) (HPC) 101 % of control and 92 % of control

CCOC(=O)CCC1(C(=O)OC)C(=O)CCCCCCC1C(=O)OC (configuration not stated)
inactive: [8] 95 % of control | [9] 100 % of control | [12] 100 % of control

c1ccc2c3c(ccc2c1)-c1ccc2ccccc2c1OP1(=NP(N2CC2)(N2CC2)=NP(N2CC2)(N2CC2)=N1)O3
inactive: dose: 100.0 mg/kg/injection, schedule: Q04DX002 (ip), vehicle: Klucel (hydroxypropylcellulose) (HPC) 100 % of control | dose: 200.0 mg/kg/injection, schedule: Q04DX002 (ip), vehicle: Klucel (hydroxypropylcellulose) (HPC) 99 % of control | dose: 400.0 mg/kg/injection, schedule: Q04DX002 (ip), vehicle: Klucel (hydroxypropylcellulose) (HPC) 103 % of control

COCc1onc(-c2ccc(OC)cc2)c1-c1ccc(OC)cc1
inactive: [10] 105 % of control | [11] 100 % of control | dose: 240.0 mg/kg/injection, schedule: Q01DX005 (ip), vehicle: saline with Tween-80 100 % of control

COc1cc2c(c(OC)c1OC)-c1ccc(=O)c(OC)cc1[C@@H](N(C)C=O)CC2
inactive: dose: 2.5 mg/kg/injection, schedule: Q01DX009 (ip), vehicle: Klucel (hydroxypropylcellulose) (HPC) 105 % of control | dose: 5.0 mg/kg/injection, schedule: Q01DX009 (ip), vehicle: Klucel (hydroxypropylcellulose) (HPC) 112 % of control | dose: 10.0 mg/kg/injection, schedule: Q01DX009 (ip), vehicle: Klucel (hydroxypropylcellulose) (HPC) 100 % of control | dose: 20.0 mg/kg/injection, schedule: Q01DX009 (ip), vehicle: Klucel (hydroxypropylcellulose) (HPC) 114 % of control | dose: 40.0 mg/kg/injection, schedule: Q01DX009 (ip), vehicle: Klucel (hydroxypropylcellulose) (HPC) 114 % of control

O=C1C(Cl)=C(NCCCN(CCO)CCO)C(=O)c2ccccc21
inactive: dose: 12.5 mg/kg/injection, schedule: Q01DX009 (ip), vehicle: saline 100 % of control | dose: 25.0 mg/kg/injection, schedule: Q01DX009 (ip), vehicle: saline 107 % of control and 88 % of control | dose: 50.0 mg/kg/injection, schedule: Q01DX009 (ip), vehicle: saline 107 % of control and 108 % of control

Cn1c(=O)c2c(ncn2CCNC(c2ccccc2)c2ccccc2)n(C)c1=O
inactive: dose: 50.0 mg/kg/injection, schedule: Q01DX005 (ip), vehicle: water 107 % of control | dose: 100.0 mg/kg/injection, schedule: Q01DX005 (ip), vehicle: water 107 % of control | dose: 200.0 mg/kg/injection, schedule: Q01DX005 (ip), vehicle: water 107 % of control

O=C1CSC(=Nc2ccccc2)N1c1ncccn1
inactive: [13] 103 % of control | [14] 102 % of control | [15] 102 % of control

C=C1CCC(=O)NC1=O
inactive: dose: 6.25 mg/kg/injection, schedule: Q01DX005 (ip), vehicle: saline 105 % of control | [2] 102 % of control | [3] 99 % of control | [16] 116 % of control

CC(C)=CCc1c2c(c3occ(-c4ccc(O)cc4)c(=O)c3c1O)C=CC(C)(C)O2
inactive: dose: 25.0 mg/kg/injection, schedule: Q01DX009 (ip), vehicle: Klucel (hydroxypropylcellulose) (HPC) 90 % of control | [13] 90 % of control | [14] 88 % of control | [15] 88 % of control
